BindingDB's records for doi:10.1016/j.ejmech.2016.06.010 (Monash University, 2016)
pIC50: −log10 of the molar value.

Experiments:
[1] = Inhibition of PI3Kbeta in human washed platelets assessed as suppression of ADP-induced platelet aggregation preincubated for 5 mins followed by ADP stimulation after 10 mins by light transmission aggregometric analysis
[2] = Inhibition of PI3Kbeta in human platelet-rich plasma assessed as suppression of ADP-induced platelet aggregation preincubated for 5 mins followed by ADP stimulation after 10 mins by light transmission aggregometric analysis
[3] = biological target: Phosphatidylinositol 4,5-bisphosphate 3-kinase catalytic subunit beta isoform (Homo sapiens, UniProt P42338); assay: Inhibition of PI3Kbeta in human washed platelets assessed as suppression of ADP-induced platelet aggregation preincubated for 5 mins followed by ADP stimulation after 10 mins by light transmission aggregometric analysis
Sequence of Phosphatidylinositol 4,5-bisphosphate 3-kinase catalytic subunit beta isoform (P42338 whole entry, canonical isoform): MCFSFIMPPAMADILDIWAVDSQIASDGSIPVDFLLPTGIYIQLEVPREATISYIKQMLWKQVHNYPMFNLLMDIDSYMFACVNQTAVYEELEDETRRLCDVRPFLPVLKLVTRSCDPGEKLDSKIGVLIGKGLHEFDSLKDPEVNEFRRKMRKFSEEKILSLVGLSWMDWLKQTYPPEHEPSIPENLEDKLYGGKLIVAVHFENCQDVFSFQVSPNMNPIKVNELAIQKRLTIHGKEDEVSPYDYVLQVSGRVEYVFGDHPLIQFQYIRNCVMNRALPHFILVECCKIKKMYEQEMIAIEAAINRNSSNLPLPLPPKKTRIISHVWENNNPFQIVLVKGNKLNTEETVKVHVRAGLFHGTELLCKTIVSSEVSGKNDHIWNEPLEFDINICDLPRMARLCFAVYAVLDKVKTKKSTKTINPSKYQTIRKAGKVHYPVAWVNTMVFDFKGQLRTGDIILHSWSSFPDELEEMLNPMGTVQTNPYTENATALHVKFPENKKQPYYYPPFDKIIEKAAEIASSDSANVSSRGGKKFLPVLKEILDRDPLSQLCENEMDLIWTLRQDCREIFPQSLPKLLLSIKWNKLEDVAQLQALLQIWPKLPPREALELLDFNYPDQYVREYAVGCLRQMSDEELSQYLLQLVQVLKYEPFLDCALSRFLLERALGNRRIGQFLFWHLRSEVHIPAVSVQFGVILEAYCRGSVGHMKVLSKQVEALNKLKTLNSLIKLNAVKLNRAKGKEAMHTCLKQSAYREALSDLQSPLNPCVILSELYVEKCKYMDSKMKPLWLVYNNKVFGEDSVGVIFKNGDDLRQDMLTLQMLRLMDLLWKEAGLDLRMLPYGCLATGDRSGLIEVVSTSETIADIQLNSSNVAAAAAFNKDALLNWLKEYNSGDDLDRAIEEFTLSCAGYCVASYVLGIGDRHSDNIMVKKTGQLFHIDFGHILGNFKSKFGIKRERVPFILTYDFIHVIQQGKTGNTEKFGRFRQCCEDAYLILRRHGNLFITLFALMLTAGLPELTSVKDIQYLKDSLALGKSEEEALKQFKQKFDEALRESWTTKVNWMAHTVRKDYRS

Compound	pIC50 [1]	pIC50 [2]	pIC50 [3]
O=C([C@@H]1CCCN1)N1CCN(c2nc(N3CCOCC3)nc(-n3c(C(F)F)nc4ccccc43)n2)CC1	7.52		
N[C@@H](Cc1ccccc1)C(=O)N1CCN(c2nc(N3CCOCC3)nc(-n3c(C(F)F)nc4ccccc43)n2)CC1		5.55	7.52
O=C([C@H]1CCCN1)N1CCN(c2nc(N3CCOCC3)nc(-n3c(C(F)F)nc4ccccc43)n2)CC1	7.52		
